Measured values published in ChEMBL document CHEMBL5728589, “Inhibitors of RIP1 kinase and methods of use thereof” (2021).
pKi: −log10 of the molar value. Values joined by “and” are separate entries in the source; they are usually repeats but may differ in a detail not shown here. Identical values can stand only once.

Molecular target: T1, Receptor-interacting serine/threonine-protein kinase 1 (Homo sapiens, UniProt Q13546)
T1 sequence (Q13546 whole entry): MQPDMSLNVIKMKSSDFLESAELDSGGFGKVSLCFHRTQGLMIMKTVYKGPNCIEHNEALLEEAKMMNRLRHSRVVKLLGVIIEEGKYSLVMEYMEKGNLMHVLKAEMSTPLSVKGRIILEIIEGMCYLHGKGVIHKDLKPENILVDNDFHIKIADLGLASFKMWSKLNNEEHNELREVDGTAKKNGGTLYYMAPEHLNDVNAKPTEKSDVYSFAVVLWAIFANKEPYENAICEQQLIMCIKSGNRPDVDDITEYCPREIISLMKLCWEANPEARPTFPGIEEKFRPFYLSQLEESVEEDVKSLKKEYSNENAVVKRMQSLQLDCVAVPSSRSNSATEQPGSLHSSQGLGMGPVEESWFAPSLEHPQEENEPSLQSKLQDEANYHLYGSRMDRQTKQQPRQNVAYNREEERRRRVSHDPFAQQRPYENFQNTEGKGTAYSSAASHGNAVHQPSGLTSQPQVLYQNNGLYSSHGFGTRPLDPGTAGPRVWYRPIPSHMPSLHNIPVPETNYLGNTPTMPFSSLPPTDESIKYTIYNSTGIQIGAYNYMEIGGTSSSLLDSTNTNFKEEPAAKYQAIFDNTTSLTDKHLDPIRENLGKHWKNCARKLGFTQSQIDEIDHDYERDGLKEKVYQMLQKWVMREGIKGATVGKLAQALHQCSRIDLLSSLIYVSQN
Assay: Enzyme Assay: The ability of the receptor interacting protein kinase (RIPK1) to catalyze the hydrolysis of adenosine-5′-triphosphate (ATP) is monitored using the Transcreener ADP (adenosine-5′-diphosphate) assay (BellBrook Labs).

pKi: 7.68 and 7.85
SMILES: CCC(F)(F)[C@H]1CCc2nc(C(=O)N[C@H]3CCc4cc(F)cc(F)c4NC3=O)nn21
